# Tested on: 282377-053-R-J1-PDC complex spheroids, viability
# Assay: Anticancer human tumor 282377-053-R-J1-PDC patient-derived colon adenocarcinoma cell line growth inhibition [GQUAD]
# Settings: for IC50: curve of first compound; for viability, T/C: stronger effect = lower value
# Outline: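 Tumor cells were grown as complex spheroids with HUVEC endothelial cells and mesenchymal stem cells as stroma. G-quadruplex stabilizers were combined with targeted agents over half-log dilutions from near the clinical Cmax, or from 10 microM.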
# [1] = second compound 0.0316 µM, first compound 0.0316 µM
# [2] = second compound 0.0316 µM, first compound 0.1 µM
# [3] = second compound 0.0316 µM, first compound 0.316 µM
# [4] = second compound 0.0316 µM, first compound 1 µM
# [5] = second compound 0.0316 µM, first compound 3.16 µM
# [6] = second compound 0.0316 µM, first compound 10 µM
# [7] = second compound 0.1 µM, first compound 0.0316 µM
# [8] = second compound 0.1 µM, first compound 0.1 µM
# [9] = second compound 0.1 µM, first compound 0.316 µM
# [10] = second compound 0.1 µM, first compound 1 µM
# [11] = second compound 0.1 µM, first compound 3.16 µM
# [12] = second compound 0.1 µM, first compound 10 µM
# [13] = second compound 0.316 µM, first compound 0.0316 µM
# [14] = second compound 0.316 µM, first compound 0.1 µM
# [15] = second compound 0.316 µM, first compound 0.316 µM
# [16] = second compound 0.316 µM, first compound 1 µM
# [17] = second compound 0.316 µM, first compound 3.16 µM
# [18] = second compound 0.316 µM, first compound 10 µM
# [19] = second compound 1 µM, first compound 0.0316 µM
# [20] = second compound 1 µM, first compound 0.1 µM
# [21] = second compound 1 µM, first compound 0.316 µM
# [22] = second compound 1 µM, first compound 1 µM
# [23] = second compound 1 µM, first compound 3.16 µM
# [24] = second compound 1 µM, first compound 10 µM
# [25] = second compound 3.16 µM, first compound 0.0316 µM
# [26] = second compound 3.16 µM, first compound 0.1 µM
# [27] = second compound 3.16 µM, first compound 0.316 µM
# [28] = second compound 3.16 µM, first compound 1 µM
# [29] = second compound 3.16 µM, first compound 3.16 µM
# [30] = second compound 3.16 µM, first compound 10 µM
# [31] = second compound 10 µM, first compound 0.0316 µM
# [32] = second compound 10 µM, first compound 0.1 µM
# [33] = second compound 10 µM, first compound 0.316 µM
# [34] = second compound 10 µM, first compound 1 µM
# [35] = second compound 10 µM, first compound 3.16 µM
# [36] = second compound 10 µM, first compound 10 µM
# 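Note: spheroids exposed to compounds for 7 days before readout.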
# 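Throughout, for viability, T/C: percent of vehicle DMSO control viability with 100% = untreated-like growth.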
compound,measurement,setting,value
CC(=O)O[C@H]1C(=O)[C@@]2(C)[C@H]([C@H](OC(=O)c3ccccc3)[C@]3(O)C[C@H](OC(=O)[C@H](O)[C@@H](NC(=O)c4ccccc4)c4ccccc4)C(C)=C1C3(C)C)[C@]1(OC(C)=O)CO[C@@H]1C[C@@H]2O + Cc1[nH]c2ccc(F)cc2c1-c1nc2c3cccnc3c3ncccc3c2[nH]1,IC50,second compound 0.0316 µM,519 nM
same,IC50,second compound 0.1 µM,584 nM
same,IC50,second compound 0.316 µM,519 nM
same,IC50,second compound 1 µM,617 nM
same,IC50,second compound 3.16 µM,424 nM
same,IC50,second compound 10 µM,< 31.6 nM
same,"viability, T/C",[1],115%
same,"viability, T/C",[2],112%
same,"viability, T/C",[3],84.6%
same,"viability, T/C",[4],4.01%
same,"viability, T/C",[5],0.1%
same,"viability, T/C",[6],0.12%
same,"viability, T/C",[7],108%
same,"viability, T/C",[8],107%
same,"viability, T/C",[9],106%
same,"viability, T/C",[10],3.64%
same,"viability, T/C",[11],0.06%
same,"viability, T/C",[12],0.09%
same,"viability, T/C",[13],107%
same,"viability, T/C",[14],111%
same,"viability, T/C",[15],79.5%
same,"viability, T/C",[16],10.8%
same,"viability, T/C",[17],0.05%
same,"viability, T/C",[18],0.21%
same,"viability, T/C",[19],116%
same,"viability, T/C",[20],90.3%
same,"viability, T/C",[21],110%
same,"viability, T/C",[22],9.92%
same,"viability, T/C",[23],0.04%
same,"viability, T/C",[24],0.07%
same,"viability, T/C",[25],92.8%
same,"viability, T/C",[26],109%
same,"viability, T/C",[27],66%
same,"viability, T/C",[28],4.89%
same,"viability, T/C",[29],0.11%
same,"viability, T/C",[30],0.1%
same,"viability, T/C",[31],36.7%
same,"viability, T/C",[32],43.9%
same,"viability, T/C",[33],59.1%
same,"viability, T/C",[34],10.1%
same,"viability, T/C",[35],0.17%
same,"viability, T/C",[36],0.46%
C=CC(=O)N1CCN(c2nc(=O)n(-c3c(C)ccnc3C(C)C)c3nc(-c4c(O)cccc4F)c(F)cc23)C(C)C1 (stereo not drawn) + CN(C)c1ccc(Nc2c3ccc(NC(=O)CCN4CCCC4)cc3nc3cc(NC(=O)CCN4CCCC4)ccc23)cc1,IC50,second compound 0.0316 µM,> 10000 nM
same,IC50,second compound 0.1 µM,> 10000 nM
same,IC50,second compound 0.316 µM,> 10000 nM
same,IC50,second compound 1 µM,> 10000 nM
same,IC50,second compound 3.16 µM,> 10000 nM
same,IC50,second compound 10 µM,> 10000 nM
same,"viability, T/C",[1],105%
same,"viability, T/C",[2],104%
same,"viability, T/C",[3],99.3%
same,"viability, T/C",[4],99%
same,"viability, T/C",[5],87%
same,"viability, T/C",[6],79%
same,"viability, T/C",[7],107%
same,"viability, T/C",[8],94.5%
same,"viability, T/C",[9],110%
same,"viability, T/C",[10],96%
same,"viability, T/C",[11],107%
same,"viability, T/C",[12],66.6%
same,"viability, T/C",[13],115%
same,"viability, T/C",[14],97.6%
same,"viability, T/C",[15],103%
same,"viability, T/C",[16],101%
same,"viability, T/C",[17],103%
same,"viability, T/C",[18],72.4%
same,"viability, T/C",[19],112%
same,"viability, T/C",[20],99.5%
same,"viability, T/C",[21],98.5%
same,"viability, T/C",[22],95.9%
same,"viability, T/C",[23],90.5%
same,"viability, T/C",[24],92.8%
same,"viability, T/C",[25],105%
same,"viability, T/C",[26],90.2%
same,"viability, T/C",[27],100%
same,"viability, T/C",[28],84.9%
same,"viability, T/C",[29],79.9%
same,"viability, T/C",[30],89.9%
same,"viability, T/C",[31],111%
same,"viability, T/C",[32],93.3%
same,"viability, T/C",[33],94.5%
same,"viability, T/C",[34],79.8%
same,"viability, T/C",[35],88.3%
same,"viability, T/C",[36],86.5%
O=c1[nH]cc(F)c(=O)[nH]1 + Cc1[nH]c2ccc(F)cc2c1-c1nc2c3cccnc3c3ncccc3c2[nH]1,IC50,second compound 0.0316 µM,> 10000 nM
same,IC50,second compound 0.1 µM,> 10000 nM
same,IC50,second compound 0.316 µM,> 10000 nM
same,IC50,second compound 1 µM,> 10000 nM
same,IC50,second compound 3.16 µM,> 10000 nM
same,IC50,second compound 10 µM,< 31.6 nM
same,"viability, T/C",[1],92.8%
same,"viability, T/C",[2],104%
same,"viability, T/C",[3],126%
same,"viability, T/C",[4],88.8%
same,"viability, T/C",[5],78.2%
same,"viability, T/C",[6],74%
same,"viability, T/C",[7],110%
same,"viability, T/C",[8],111%
same,"viability, T/C",[9],114%
same,"viability, T/C",[10],87.5%
same,"viability, T/C",[11],84.1%
same,"viability, T/C",[12],82%
same,"viability, T/C",[13],115%
same,"viability, T/C",[14],106%
same,"viability, T/C",[15],93.7%
same,"viability, T/C",[16],95.1%
same,"viability, T/C",[17],75.8%
same,"viability, T/C",[18],69.3%
same,"viability, T/C",[19],108%
same,"viability, T/C",[20],112%
same,"viability, T/C",[21],117%
same,"viability, T/C",[22],91.2%
same,"viability, T/C",[23],76.4%
same,"viability, T/C",[24],68.4%
same,"viability, T/C",[25],75.7%
same,"viability, T/C",[26],80.2%
same,"viability, T/C",[27],72%
same,"viability, T/C",[28],49.9%
same,"viability, T/C",[29],58.8%
same,"viability, T/C",[30],54.1%
same,"viability, T/C",[31],41.1%
same,"viability, T/C",[32],40.5%
same,"viability, T/C",[33],50.8%
same,"viability, T/C",[34],42%
same,"viability, T/C",[35],40%
same,"viability, T/C",[36],34.4%
CC1COCCN1c1cc(-c2ccnn2C)c2ccnc(-c3ccn[nH]3)c2n1 (stereo not drawn) + Cc1cnc(CNC(=O)c2c(=O)c3ccc(N4CCCN(C)CC4)nc3n3c2sc2ccccc23)cn1,IC50,second compound 0.0316 µM,97.4 nM
same,IC50,second compound 0.1 µM,76.9 nM
same,IC50,second compound 0.316 µM,< 31.6 nM
same,IC50,second compound 1 µM,< 31.6 nM
same,IC50,second compound 3.16 µM,< 31.6 nM
same,IC50,second compound 10 µM,< 31.6 nM
same,"viability, T/C",[1],97%
same,"viability, T/C",[2],46.1%
same,"viability, T/C",[3],36%
same,"viability, T/C",[4],27.8%
same,"viability, T/C",[5],24.1%
same,"viability, T/C",[6],21.2%
same,"viability, T/C",[7],65.8%
same,"viability, T/C",[8],43.5%
same,"viability, T/C",[9],34.4%
same,"viability, T/C",[10],25.5%
same,"viability, T/C",[11],23.7%
same,"viability, T/C",[12],16.2%
same,"viability, T/C",[13],41.9%
same,"viability, T/C",[14],40.9%
same,"viability, T/C",[15],36.1%
same,"viability, T/C",[16],26.2%
same,"viability, T/C",[17],21.5%
same,"viability, T/C",[18],18.4%
same,"viability, T/C",[19],40.4%
same,"viability, T/C",[20],32%
same,"viability, T/C",[21],26.8%
same,"viability, T/C",[22],26.2%
same,"viability, T/C",[23],23.5%
same,"viability, T/C",[24],16.3%
same,"viability, T/C",[25],35.4%
same,"viability, T/C",[26],32.8%
same,"viability, T/C",[27],25.4%
same,"viability, T/C",[28],22.8%
same,"viability, T/C",[29],21.1%
same,"viability, T/C",[30],15.8%
same,"viability, T/C",[31],26.9%
same,"viability, T/C",[32],22.5%
same,"viability, T/C",[33],27.1%
same,"viability, T/C",[34],23%
same,"viability, T/C",[35],21.5%
same,"viability, T/C",[36],15.6%

# Reference: PubChem BioAssay AID2060501 (Molecular Pharmacology Branch, DTP, NCI, 2025)
